For 22 compounds, activity coefficient results are on record in the NIST ThermoML archive (doi:10.1016/j.fluid.2009.01.011).

This data set can be described thus: activity coefficient (dimensionless); of the first substance listed, at infinite dilution; xn = mol fraction of the nth substance listed. As to conditions: Liquid, Chromatography, x1 = 0.

Numbers after ± are expanded uncertainties.

For `C#CCCCC` [1-hexyne] + CCCC[N+]1(C)CCCC1.O=S(=O)([O-])C(F)(F)F, the activity coefficient was found to be 3.57 ± 0.16 (298.15 K); 3.66 ± 0.16 (308.15 K); 3.76 ± 0.17 (318.15 K); 3.85 ± 0.17 (328.15 K); 3.94 ± 0.17 (338.15 K); 4.02 ± 0.18 (348.15 K). Also, the activity coefficient (358.15 K) is 4.09 ± 0.18 and the activity coefficient (368.15 K) is 4.18 ± 0.18.
Take `CCCCCCC` [heptane] + CCCC[N+]1(C)CCCC1.O=S(=O)([O-])C(F)(F)F: the activity coefficient (298.15 K) was 71.5 ± 3.2; the activity coefficient (308.15 K) stood at 64.7 ± 2.9; the activity coefficient (318.15 K) was found to be 59.3 ± 2.6; the activity coefficient (328.15 K) was 54.2 ± 2.4; the activity coefficient (338.15 K) was determined as 50.4 ± 2.2; the activity coefficient (348.15 K) was determined as 46.7 ± 2.1. The activity coefficient (358.15 K) is 43.3 ± 1.9 and the activity coefficient (368.15 K) amounted to 40.8 ± 1.8.
Turning to `Cc1ccccc1` [toluene] + CCCC[N+]1(C)CCCC1.O=S(=O)([O-])C(F)(F)F, the activity coefficient (298.15 K) was found to be 2.16 ± 0.09; the activity coefficient (308.15 K) stood at 2.19 ± 0.1; the activity coefficient (318.15 K) worked out at 2.22 ± 0.1; the activity coefficient (328.15 K) is 2.25 ± 0.1; the activity coefficient (338.15 K) was 2.27 ± 0.1; the activity coefficient (348.15 K) turned out to be 2.3 ± 0.1. Further, the activity coefficient reads like this: (358.15 K) 2.32 ± 0.1; (368.15 K) 2.35 ± 0.1.
For `c1ccsc1` [thiophene] + CCCC[N+]1(C)CCCC1.O=S(=O)([O-])C(F)(F)F, the activity coefficient runs as follows: (298.15 K) 1.02 ± 0.04; (308.15 K) 1.04 ± 0.04; (318.15 K) 1.06 ± 0.04; (328.15 K) 1.08 ± 0.04; (338.15 K) 1.1 ± 0.04; (348.15 K) 1.11 ± 0.04. Besides, the activity coefficient by setting is: (358.15 K) 1.13 ± 0.04; (368.15 K) 1.14 ± 0.04.
As to `C#CCCCCCC` [1-octyne] + CCCC[N+]1(C)CCCC1.O=S(=O)([O-])C(F)(F)F, the activity coefficient runs as follows: (298.15 K) 7.56 ± 0.33; (308.15 K) 7.63 ± 0.34; (318.15 K) 7.7 ± 0.34; (328.15 K) 7.76 ± 0.34; (338.15 K) 7.83 ± 0.35; (348.15 K) 7.88 ± 0.35. The activity coefficient runs as follows: (358.15 K) 7.94 ± 0.35; (368.15 K) 7.99 ± 0.35.
For `C=CCCC` [1-pentene] + CCCC[N+]1(C)CCCC1.O=S(=O)([O-])C(F)(F)F, the activity coefficient (298.15 K) worked out at 17.6 ± 0.8; the activity coefficient (308.15 K) worked out at 16.3 ± 0.7; the activity coefficient (318.15 K) worked out at 15.3 ± 0.7; the activity coefficient (328.15 K) was 14.4 ± 0.6; the activity coefficient (338.15 K) is 13.5 ± 0.6; the activity coefficient (348.15 K) was determined as 12.8 ± 0.6. For the setting “358.15 K”, the activity coefficient turned out to be 12.2 ± 0.5.
Turning to `Cc1ccc(C)cc1` [1,4-dimethylbenzene] + CCCC[N+]1(C)CCCC1.O=S(=O)([O-])C(F)(F)F, the activity coefficient (308.15 K) came out at 3.32 ± 0.15; the activity coefficient (318.15 K) was determined as 3.35 ± 0.15; the activity coefficient (328.15 K) was determined as 3.38 ± 0.15; the activity coefficient (338.15 K) came to 3.4 ± 0.15; the activity coefficient (348.15 K) was found to be 3.43 ± 0.15; the activity coefficient (358.15 K) came to 3.45 ± 0.15. Also, the activity coefficient (368.15 K) came to 3.48 ± 0.15.
Regarding `C1CCOC1` [tetrahydrofuran] + CCCC[N+]1(C)CCCC1.O=S(=O)([O-])C(F)(F)F, the activity coefficient was 1.38 ± 0.05 (298.15 K); 1.39 ± 0.06 (308.15 K); 1.41 ± 0.06 (318.15 K); 1.42 ± 0.06 (328.15 K); 1.43 ± 0.06 (338.15 K); 1.44 ± 0.06 (348.15 K). The activity coefficient is, setting by setting: (358.15 K) 1.45 ± 0.06; (368.15 K) 1.46 ± 0.06.
Consider `c1ccccc1` [benzene] + CCCC[N+]1(C)CCCC1.O=S(=O)([O-])C(F)(F)F, for which the activity coefficient runs as follows: (298.15 K) 1.41 ± 0.06; (308.15 K) 1.44 ± 0.06; (318.15 K) 1.46 ± 0.06; (328.15 K) 1.48 ± 0.06; (338.15 K) 1.5 ± 0.06; (348.15 K) 1.53 ± 0.06. In addition, the activity coefficient worked out at 1.54 ± 0.06 (358.15 K) and 1.56 ± 0.06 (368.15 K).
As to `C1CCCCCC1` [cycloheptane] + CCCC[N+]1(C)CCCC1.O=S(=O)([O-])C(F)(F)F, the activity coefficient reads like this: (298.15 K) 29.3 ± 1.3; (308.15 K) 27 ± 1.2; (318.15 K) 24.9 ± 1.1; (328.15 K) 23.1 ± 1; (338.15 K) 21.6 ± 1; (348.15 K) 20.1 ± 0.9. In addition, the activity coefficient runs as follows: (358.15 K) 18.9 ± 0.8; (368.15 K) 17.9 ± 0.8.
Regarding `CCc1ccccc1` [ethylbenzene] + CCCC[N+]1(C)CCCC1.O=S(=O)([O-])C(F)(F)F, the activity coefficient is 3.43 ± 0.15 (298.15 K); 3.45 ± 0.15 (308.15 K); 3.46 ± 0.15 (318.15 K); 3.48 ± 0.15 (328.15 K); 3.5 ± 0.15 (338.15 K); 3.51 ± 0.15 (348.15 K). Besides, the activity coefficient (358.15 K) was 3.53 ± 0.16 and the activity coefficient (368.15 K) is 3.54 ± 0.16.
Consider `CCCCCC` [hexane] + CCCC[N+]1(C)CCCC1.O=S(=O)([O-])C(F)(F)F, for which the activity coefficient reads like this: (298.15 K) 55.8 ± 2.5; (308.15 K) 50.6 ± 2.3; (318.15 K) 46.4 ± 2.1; (328.15 K) 42.2 ± 1.9; (338.15 K) 38.8 ± 1.7; (348.15 K) 35.8 ± 1.6. The activity coefficient (358.15 K) was determined as 33.3 ± 1.5 and the activity coefficient (368.15 K) amounted to 31.3 ± 1.4.
In the case of `C=CCCCCC` [1-heptene] + CCCC[N+]1(C)CCCC1.O=S(=O)([O-])C(F)(F)F, the activity coefficient was found to be 29 ± 1.3 (298.15 K); 27.5 ± 1.2 (308.15 K); 26.1 ± 1.2 (318.15 K); 24.8 ± 1.1 (328.15 K); 23.6 ± 1 (338.15 K); 22.6 ± 1 (348.15 K). Besides, the activity coefficient was 21.6 ± 1 (358.15 K) and 20.8 ± 0.9 (368.15 K).
Take `CCO` [ethanol] + CCCC[N+]1(C)CCCC1.O=S(=O)([O-])C(F)(F)F: the activity coefficient reads like this: (298.15 K) 1.05 ± 0.04; (308.15 K) 1 ± 0.04; (318.15 K) 0.948 ± 0.034; (328.15 K) 0.9 ± 0.033; (338.15 K) 0.862 ± 0.032; (348.15 K) 0.827 ± 0.032. For the same compound, the activity coefficient by setting is: (358.15 K) 0.791 ± 0.031; (368.15 K) 0.763 ± 0.031.
On to `CCCO` [propan-1-ol] + CCCC[N+]1(C)CCCC1.O=S(=O)([O-])C(F)(F)F, for which the activity coefficient worked out at 1.26 ± 0.05 (308.15 K); 1.2 ± 0.05 (318.15 K); 1.14 ± 0.04 (328.15 K); 1.08 ± 0.04 (338.15 K); 1.04 ± 0.04 (348.15 K); 0.995 ± 0.035 (358.15 K). In addition, for the setting “368.15 K”, the activity coefficient was 0.953 ± 0.034.
As for `C#CCCC` [1-pentyne] + CCCC[N+]1(C)CCCC1.O=S(=O)([O-])C(F)(F)F, the activity coefficient stood at 2.59 ± 0.11 (298.15 K); 2.66 ± 0.12 (308.15 K); 2.74 ± 0.12 (318.15 K); 2.82 ± 0.12 (328.15 K); 2.88 ± 0.13 (338.15 K); 2.95 ± 0.13 (348.15 K). Moreover, the activity coefficient is, setting by setting: (358.15 K) 3.01 ± 0.13; (368.15 K) 3.08 ± 0.14.
Turning to `C=CCCCC` [hex-1-ene] + CCCC[N+]1(C)CCCC1.O=S(=O)([O-])C(F)(F)F, the activity coefficient is, setting by setting: (298.15 K) 21.6 ± 1; (308.15 K) 20.2 ± 0.9; (318.15 K) 19.2 ± 0.9; (328.15 K) 18.1 ± 0.8; (338.15 K) 17.3 ± 0.8; (348.15 K) 16.4 ± 0.7. For the same compound, the activity coefficient runs as follows: (358.15 K) 15.7 ± 0.7; (368.15 K) 15 ± 0.7.
Consider `CCCCCCCCCC` [decane] + CCCC[N+]1(C)CCCC1.O=S(=O)([O-])C(F)(F)F, for which the activity coefficient (298.15 K) is 195 ± 9; the activity coefficient (308.15 K) came to 174 ± 8; the activity coefficient (318.15 K) is 157 ± 7; the activity coefficient (328.15 K) amounted to 143 ± 6; the activity coefficient (338.15 K) came to 130 ± 6; the activity coefficient (348.15 K) was 120 ± 5. Further, the activity coefficient (358.15 K) came to 110 ± 5 and the activity coefficient (368.15 K) was determined as 101 ± 5.
As to `CCCCC` [pentane] + CCCC[N+]1(C)CCCC1.O=S(=O)([O-])C(F)(F)F, the activity coefficient was 52.1 ± 2.3 (298.15 K); 46.1 ± 2.1 (308.15 K); 40.3 ± 1.8 (318.15 K); 35.9 ± 1.6 (328.15 K); 32.2 ± 1.4 (338.15 K); 28.9 ± 1.3 (348.15 K). Moreover, the activity coefficient (358.15 K) was 26.1 ± 1.2.
Turning to `C1CCCCCCC1` [cyclooctane] + CCCC[N+]1(C)CCCC1.O=S(=O)([O-])C(F)(F)F, the activity coefficient worked out at 37.4 ± 1.7 (298.15 K); 34 ± 1.5 (308.15 K); 31.4 ± 1.4 (318.15 K); 29.1 ± 1.3 (328.15 K); 26.9 ± 1.2 (338.15 K); 25.1 ± 1.1 (348.15 K). The activity coefficient (358.15 K) turned out to be 23.5 ± 1 and the activity coefficient (368.15 K) stood at 22.2 ± 1.
`CO` [methanol] + CCCC[N+]1(C)CCCC1.O=S(=O)([O-])C(F)(F)F: the activity coefficient was 0.717 ± 0.03 (298.15 K); 0.684 ± 0.029 (308.15 K); 0.655 ± 0.029 (318.15 K); 0.628 ± 0.029 (328.15 K); 0.604 ± 0.028 (338.15 K); 0.581 ± 0.028 (348.15 K). The activity coefficient runs as follows: (358.15 K) 0.563 ± 0.028; (368.15 K) 0.543 ± 0.028.
`CCCCCCCCC` [nonane] + CCCC[N+]1(C)CCCC1.O=S(=O)([O-])C(F)(F)F: the activity coefficient was determined as 135 ± 6 (298.15 K); 122 ± 5 (308.15 K); 111 ± 5 (318.15 K); 100 ± 5 (328.15 K); 92.4 ± 4.1 (338.15 K); 85.2 ± 3.8 (348.15 K). Further, the activity coefficient by setting is: (358.15 K) 78.9 ± 3.5; (368.15 K) 73.3 ± 3.3.
